Reference: patent US9290740B2, “Use of basic fibroblast growth factor in the de-differentiation of animal connective tissue cells” (Worcester Polytechnic Institute, priority 2008, dated 2016)
“And” between values parts separate entries of the source, which are not always exact repeats. Equal values may be shown once.

Columns and labels:
[1] = system: adult human dermal fibroblasts (CRL-2352); experiment: Effect of FGF2 and oxygen level on proliferation and in vitro lifespan (population doublings to senescence); assay type: cell-based
Procedure: Adult human fibroblasts (cell line CRL-2352) derived from connective tissue isolated from tissue derived from a below knee amputation of a person were received from American type Tissue Culture Collection (ATCC) (Manassas, Va.) as cryopreserved vials and were stored in liquid nitrogen until use. Cells were thawed at 37 C and added dropwise to 10 ml of basal culture medium (CM-1A, 45% DMEM without L-gln or phenol red (MediaTech, Manassas, Va.) with 4 mM L-Gln (MediaTech), 45% Hams F12 Medium (MediaTech), and 10% Fetalclone III (Hyclone, Logan, Utah)). The cell suspension was centrifuged at 700×g for 5 min, the medium aspirated and the pellet resuspended in fresh CM1A culture medium. Cells were seeded at a density of 0.5×106 in 10 ml of medium in T75 tissue culture flasks (BD Falcon). Cultures were carried out in a 37 C incubator in a humidified environment of 5% CO2, 5% O2, 90% N2. Cells were passaged at routine intervals at approximately 70-90% confluence using Trypsin-EDTA solution (MediaTech) diluted 1:5 in DPBS without Ca2+/Mg2+ (MediaTech). At each passage, cells were counted using a Levy Counting chamber (Hausser Scientific) and the number of population doublings calculated as log 2. For comparative studies, human recombinant FGF2 (either Invitrogen or Chemicon) was supplemented into CM1A at 4 ng/ml (medium designated CM2A) from a 100 μg/ml stock solution in DPBS (MediaTech).
Cells were passaged continuously at either 3 or 4 day intervals without interruption until in vitro senescence was reached. Two replicate T25 vessels of cells for each treatment (with or without FGF2) were seeded at each passage with 100,000 cells per vessel. The average number of population doublings (PDs) was calculated at each passage and cumulative PDs plotted versus time (days) in culture (FIG. 1).
Cells were thawed and seeded at equal density into T25 cell culture flasks (BD Falcon) and cultured at 37° C., 5% CO2, balance air (high O2); and 37° C., 5% CO2, 5% O2, 90% N2 (low O2). For each oxygen tension level, cells were also cultured with and without FGF2 (4 ng/ml). Cells were passaged at 3 or 4 day intervals, counted and 100,000 cells re-seeded at each passage. The number of population doublings at each passage was determined and cumulative population doublings compared between low and high O2 treatment groups. In addition, at day 28 of culture, FGF2 was removed from a population of cells and the culture continued to monitor the long term effect of previous culture with FGF2.
Primary adult human dermal fibroblasts from connective tissue isolated from tissue biopsy from a below knee amputation of a person were received from ATCC(CRL-2352) at passage 2. Cells were cultured in medium consisting of DMEM:Ham's F12 ([…], MediaTech) with 10% Fetalclone III (Hyclone, Logan, Utah). The DMEM (without L-Gln or phenol red) was supplemented with 4 mM fresh L-Gln (MediaTech) prior to use. Cultures were carried out in a 37° C. incubator in a humidified environment of 5% CO2, 5% O2, and 90% N2. The number of population doublings calculated as log2. Cells were seeded at 100,000 cells per T25 flask at each passage (Falcon). […] Human muscle derived fibroblasts were derived from surplus muscle tissue from the calf flexor muscle used for a surgical knee repair in an adult. Tissue was rinsed in Leibowitz L-15 medium (MediaTech) containing 10 μg/ml gentamicin (Invitrogen) and 2.5 μg/ml fungizone (Hyclone) and minced using a sterile scalpel and digested with 1800 units/ml collagenase Type IV for 1 hour at 37° C. Cell lines were established by culture at 5% O2 from the beginning and working stocks cryopreserved at passage 2.

[2] = system: Oct4, Sox2, Nanog, Rex1, Lin28, Klf4, TERT mRNA in adult human fibroblasts; experiment: RT-PCR and qRT-PCR of stem cell gene transcripts; assay type: cell-based
Procedure: RNA was extracted using TRIzol® reagent (Invitrogen) according to the manufacturer's protocol and quantified by spectrophotometry. 2 μg of RNA was subjected to DNase I digestion, followed by a reverse transcription using a QuantiTech® Reverse transcription kit (Qiagen) with a mixture of oligo-dT and random hexamers primers. 50 ng/well of cDNA was used as template in qPCR reactions with oligonucleotides specific for the genes of interest (Table 1 of Supplementary Information). A non-template control (NTC) and an RNA sample without RT for each sample were used to control for potential contaminating DNA. All qPCR reactions were performed in triplicate with the resultant values being combined into an average threshold cycle (CT). The efficiency of qPCR was calculated from the slope of a relative standard curve using GAPDH primers. Relative quantification was determined using a 7500 Real Time PCR system (Applied Biosystems) measuring SYBR green fluorescence (PerfeCTa™ SYBR Green FastMix, Low ROX (Quanta Biosciences)). Fold differences are calculated using the ΔΔCT method with the formula 2^−ΔΔCt. (Liss, B., “Improved quantitative real-time RT-PCR for expression profiling of individual cells”, Nucleic Acids Research 30(17), e89, 2002). Expression profiles for the mRNA transcripts are shown as fold differences in comparison to mRNA levels in control (untreated) fibroblast cells.
Total RNA was isolated using Trizol (Invitrogen) following the manufacturer's protocol. Four μg of total RNA was used to perform first strand cDNA synthesis using Superscript (Invitrogen). For RT-PCR, 0.5 μl of the first strand cDNA was used as template. PCR was performed in Mg^2+ free PCR buffer (TaKara) supplemented with 1.5 mM MgCl2, 200 μM each of dNTPs, 25 pmoles each of forward and reverse primers and 0.5 U of TaKara ExTaq polymerase per reaction. PCR cycling was done as follows: Initial denaturation at 95° C. for 2 minutes followed by 35 cycles of denaturation at 95° C. for 15 seconds; annealing at primer-specific annealing temperature for 1 minute; and extension at 72° C. for 1:30 minutes. Final extension was done at 72° C. for 10 minutes and the samples held at 4° C. until use. Amplification products were resolved on 2% agarose gels containing 0.5 μg/ml ethidium bromide in 1×TAE buffer and photographed using a Kodak […] Image Station.

[3] = reduced oxygen culture plus FGF2

## FGF2: human recombinant FGF2 (Invitrogen, Chemicon or Protide), basic fibroblast growth factor
[1]; FGF2 4 ng/ml, 5% O2
  population doublings at senescence, low O2 with FGF2: 65 PDs and 70 PDs
  proliferation rate versus cells without FGF2: proliferated more rapidly
[1]; FGF2 4 ng/ml, 5% O2, until replicative senescence
  additional population doublings achieved by addition of FGF2 (on average): 19 population doublings
[1]; FGF2 4 ng/ml, atmospheric oxygen
  population doublings at senescence, atmospheric oxygen with FGF2: 49 PDs and 50 PDs
[1]; FGF2, 5% O2
  cell morphology: smaller cells with a more spindle shape
[1]; FGF2/low oxygen-treated fibroblasts
  karyotype: maintained normal karyotype
[1]; FGF2 and low oxygen conditions
  increase in longevity / cell passage over primary cells cultured without these conditions: two fold increase
[1]; FGF2 and low oxygen conditions, primary cells typically about 20 to 30
  number of passages observed: 70 times
[2]; 5% oxygen, FGF2 supplemented, day 7
  transcription of Oct4, Nanog and Klf4 (RT-PCR): increased
[2]; 5% oxygen, day 7
  transcription of Sox2, Rex1 and Lin28 (RT-PCR): significant transcriptional dependence on FGF2
[2]; [3]
  Lin28 mRNA levels (qRT-PCR): further increased
  Rex1 and TERT mRNA (qRT-PCR): not further affected
